{"source": "patent US9302991B2", "about": "“Arylamide derivatives as TTX-S blockers” (RaQualia Pharma Inc., priority 2010, dated 2016)", "key": {"human Nav1.3 channels": {"target": "T1, human Nav1.3 channels (Homo sapiens, UniProt Q9NY46)", "T1 construct": "expressed in transfected cells; host or cells: HEK293", "T1 sequence (Q9NY46 whole entry)": "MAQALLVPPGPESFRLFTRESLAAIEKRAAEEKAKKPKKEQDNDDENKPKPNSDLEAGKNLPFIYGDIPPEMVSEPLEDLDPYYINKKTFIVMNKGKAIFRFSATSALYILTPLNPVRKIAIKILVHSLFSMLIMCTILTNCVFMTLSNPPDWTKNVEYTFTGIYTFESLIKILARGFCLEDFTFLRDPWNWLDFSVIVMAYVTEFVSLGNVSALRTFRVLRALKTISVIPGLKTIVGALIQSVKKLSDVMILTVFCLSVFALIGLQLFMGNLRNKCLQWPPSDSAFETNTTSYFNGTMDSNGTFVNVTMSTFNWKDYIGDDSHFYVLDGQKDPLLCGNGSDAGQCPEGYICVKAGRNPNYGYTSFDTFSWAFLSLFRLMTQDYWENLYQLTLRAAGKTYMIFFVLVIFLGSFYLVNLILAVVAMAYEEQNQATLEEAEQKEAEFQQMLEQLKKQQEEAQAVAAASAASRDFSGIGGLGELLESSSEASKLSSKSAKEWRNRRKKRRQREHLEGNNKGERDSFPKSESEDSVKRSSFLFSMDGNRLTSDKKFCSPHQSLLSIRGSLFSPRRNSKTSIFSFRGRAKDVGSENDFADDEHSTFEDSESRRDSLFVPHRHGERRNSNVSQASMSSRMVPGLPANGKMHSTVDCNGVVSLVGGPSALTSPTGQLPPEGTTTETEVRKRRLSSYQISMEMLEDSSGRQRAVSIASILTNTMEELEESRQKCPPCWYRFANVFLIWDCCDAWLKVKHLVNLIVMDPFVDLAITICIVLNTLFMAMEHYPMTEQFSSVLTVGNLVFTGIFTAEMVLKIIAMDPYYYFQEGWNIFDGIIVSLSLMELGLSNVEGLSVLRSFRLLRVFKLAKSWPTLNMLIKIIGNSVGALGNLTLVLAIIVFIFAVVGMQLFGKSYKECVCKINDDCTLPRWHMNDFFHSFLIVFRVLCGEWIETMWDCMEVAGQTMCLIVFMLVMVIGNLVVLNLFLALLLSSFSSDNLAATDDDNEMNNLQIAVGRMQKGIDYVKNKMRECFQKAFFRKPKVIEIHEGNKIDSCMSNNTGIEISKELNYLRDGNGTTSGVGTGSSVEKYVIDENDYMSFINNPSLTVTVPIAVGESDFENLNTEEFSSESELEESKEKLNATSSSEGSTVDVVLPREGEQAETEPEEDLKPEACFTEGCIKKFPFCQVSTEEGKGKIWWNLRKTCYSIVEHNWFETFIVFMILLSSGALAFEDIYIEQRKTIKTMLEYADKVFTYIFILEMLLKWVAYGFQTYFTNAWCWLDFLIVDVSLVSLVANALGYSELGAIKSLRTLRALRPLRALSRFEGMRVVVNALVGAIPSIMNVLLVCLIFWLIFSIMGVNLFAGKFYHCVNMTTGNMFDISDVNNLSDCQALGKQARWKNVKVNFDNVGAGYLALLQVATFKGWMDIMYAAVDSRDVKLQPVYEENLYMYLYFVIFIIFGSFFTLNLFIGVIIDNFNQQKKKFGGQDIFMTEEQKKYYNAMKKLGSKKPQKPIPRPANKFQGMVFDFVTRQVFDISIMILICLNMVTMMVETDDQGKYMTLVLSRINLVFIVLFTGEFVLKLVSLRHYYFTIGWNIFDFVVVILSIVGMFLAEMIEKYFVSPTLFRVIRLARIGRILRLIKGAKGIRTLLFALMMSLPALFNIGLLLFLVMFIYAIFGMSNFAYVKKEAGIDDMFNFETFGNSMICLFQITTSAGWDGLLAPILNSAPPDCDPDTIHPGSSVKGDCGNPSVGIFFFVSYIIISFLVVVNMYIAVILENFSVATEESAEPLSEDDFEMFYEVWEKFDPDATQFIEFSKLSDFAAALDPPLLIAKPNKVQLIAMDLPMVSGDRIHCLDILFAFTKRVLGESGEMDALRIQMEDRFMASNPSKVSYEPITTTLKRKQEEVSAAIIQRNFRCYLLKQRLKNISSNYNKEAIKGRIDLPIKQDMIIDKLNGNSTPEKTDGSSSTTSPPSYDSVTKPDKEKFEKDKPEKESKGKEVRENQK", "test": "FRET assay, human Nav1.3 (EFS on FDSS)", "assay_type": "cell-based", "settings": "HEK293 cells expressing human Nav1.3, read-out: IC50 against Nav1.3", "outline": "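HEK293 cells expressing the channel, loaded with 10 microM CC2-DMPE then 15 microM DiSBAC2(3) plus 0.555 mM VABSC-1 in pH 7.4 HEPES buffer at room temperature. Membrane potential changes evoked by electrical field stimulation after compound addition; IC50 from 440 nm-normalized FRET ratios.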"}, "human Nav1.5 channels": {"target": "T2, human Nav1.5 channels (Homo sapiens, UniProt Q14524)", "T2 construct": "expressed in transfected cells; host or cells: HEK293", "T2 sequence (Q14524 whole entry)": "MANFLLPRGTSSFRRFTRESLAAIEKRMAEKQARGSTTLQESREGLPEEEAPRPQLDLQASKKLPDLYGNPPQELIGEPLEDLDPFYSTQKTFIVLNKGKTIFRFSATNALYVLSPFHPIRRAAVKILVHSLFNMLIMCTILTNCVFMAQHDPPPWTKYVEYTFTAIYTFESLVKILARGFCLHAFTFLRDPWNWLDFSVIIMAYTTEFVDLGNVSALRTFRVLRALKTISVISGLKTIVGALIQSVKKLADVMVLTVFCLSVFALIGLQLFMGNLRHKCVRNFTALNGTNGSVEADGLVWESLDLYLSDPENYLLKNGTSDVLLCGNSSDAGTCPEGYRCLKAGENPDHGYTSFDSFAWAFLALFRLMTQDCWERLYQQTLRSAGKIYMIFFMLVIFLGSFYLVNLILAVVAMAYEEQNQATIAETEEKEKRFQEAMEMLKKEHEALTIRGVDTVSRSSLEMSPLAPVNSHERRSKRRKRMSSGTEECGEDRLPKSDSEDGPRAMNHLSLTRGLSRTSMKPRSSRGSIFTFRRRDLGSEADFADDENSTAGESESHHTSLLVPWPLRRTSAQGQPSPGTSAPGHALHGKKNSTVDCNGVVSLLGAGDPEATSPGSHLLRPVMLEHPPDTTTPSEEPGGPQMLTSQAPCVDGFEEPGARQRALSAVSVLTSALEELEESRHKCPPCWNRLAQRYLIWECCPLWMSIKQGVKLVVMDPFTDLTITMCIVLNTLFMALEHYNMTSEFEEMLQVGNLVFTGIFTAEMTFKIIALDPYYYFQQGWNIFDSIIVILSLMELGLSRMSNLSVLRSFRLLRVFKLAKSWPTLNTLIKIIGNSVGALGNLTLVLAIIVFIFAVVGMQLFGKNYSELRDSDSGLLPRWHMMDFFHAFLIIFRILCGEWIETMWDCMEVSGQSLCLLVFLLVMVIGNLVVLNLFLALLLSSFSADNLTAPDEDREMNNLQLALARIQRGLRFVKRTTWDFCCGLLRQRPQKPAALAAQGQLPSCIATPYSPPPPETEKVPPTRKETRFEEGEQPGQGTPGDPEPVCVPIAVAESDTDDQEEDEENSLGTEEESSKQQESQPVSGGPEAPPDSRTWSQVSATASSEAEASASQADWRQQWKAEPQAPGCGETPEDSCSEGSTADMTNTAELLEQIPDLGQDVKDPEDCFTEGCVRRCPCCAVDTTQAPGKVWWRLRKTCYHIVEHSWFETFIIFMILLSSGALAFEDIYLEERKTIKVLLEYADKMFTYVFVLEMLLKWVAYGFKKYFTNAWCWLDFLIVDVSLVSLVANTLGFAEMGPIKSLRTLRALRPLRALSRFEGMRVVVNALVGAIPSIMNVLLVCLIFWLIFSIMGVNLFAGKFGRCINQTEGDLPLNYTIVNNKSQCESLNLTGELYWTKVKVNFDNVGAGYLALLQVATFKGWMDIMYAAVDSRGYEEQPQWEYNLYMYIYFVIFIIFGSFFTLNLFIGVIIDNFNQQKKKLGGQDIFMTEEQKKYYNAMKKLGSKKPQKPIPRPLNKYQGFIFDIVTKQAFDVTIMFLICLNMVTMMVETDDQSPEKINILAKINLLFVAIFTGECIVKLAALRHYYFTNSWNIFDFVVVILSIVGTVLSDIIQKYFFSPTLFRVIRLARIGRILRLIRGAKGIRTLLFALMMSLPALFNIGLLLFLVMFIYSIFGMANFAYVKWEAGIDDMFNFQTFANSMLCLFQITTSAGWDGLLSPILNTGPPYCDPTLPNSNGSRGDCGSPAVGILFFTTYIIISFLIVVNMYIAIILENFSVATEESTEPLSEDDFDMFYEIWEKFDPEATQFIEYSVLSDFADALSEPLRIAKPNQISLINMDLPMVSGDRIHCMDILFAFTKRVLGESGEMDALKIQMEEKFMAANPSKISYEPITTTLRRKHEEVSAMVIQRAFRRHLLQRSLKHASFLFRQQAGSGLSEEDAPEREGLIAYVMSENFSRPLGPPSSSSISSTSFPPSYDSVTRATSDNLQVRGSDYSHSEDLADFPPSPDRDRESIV", "test": "FRET assay, human Nav1.5 (EFS on FDSS)", "assay_type": "cell-based", "settings": "HEK293 cells expressing human Nav1.5, read-out: activities against Nav1.5", "procedure": "The inhibitory activities of compounds against voltage gated sodium channels are determined by methodology well known in the art.\nThe ability of the aryl substituted carboxamide derivatives of the formula (I) to inhibit the NaV1.3, Nav1.7 and Nav1.5 channels is measured by Fluorescence Resonance Energy Transfer (FRET) assay and electrophysiology assay described below.\nThis screen is used to determine the effects of compounds on human Nav1.3, human Nav1.7, and human Nav1.5 channels, utilising electrical field stimulation (EFS) system in 96-well plate format on FDSS (Hamamatsu Photonics) platform. The change of membrane potential is monitored with FRET dye pair, oxonol (DiSBAC2(3)) and coumarin (CC2-DMPE).\nEach HEK293 cells expressing human Nav1.3 channels and HEK293 cells expressing human Nav1.5 channels are grown in T225 flasks, in a 5% CO2 humidified incubator to about 80% confluence. Media composition consists of Dulbecco's Modified Eagle Medium (high glucose), 10% FCS, 100 units/mL Penicillin, 100 microgram/mL Streptomycin and 500 microgram/mL Geneticine. […]\nThe data are analyzed and reported as normalized ratios of intensities measured at […]. […]\nThis analysis is performed using a computerized specific program designed for FDSS generated data. Fluorescence ratio values are plotted using XLfit to determine an IC50 value for each compound."}, "[1]": {"test_system": "CCI-induced static allodynia in rats", "test": "Chronic Constriction Injury (CCI)-induced static allodynia in rats", "assay_type": "in vivo, Sprague-Dawley rats", "settings": "100 mg/kg per os", "procedure": "Chronic Constriction Injury (CCU-Induced Static Allodynia in Rats\nMale Sprague-Dawley rats at 7 weeks old are purchased from Charles River Japan Inc., and housed in groups of two per cage under a 12-h light/dark cycle (lights on at 07:00) with access to food and water ad libitum. CCI-induced static allodynia is assessed by von Frey hair (VFH) test. Surgery is performed according to the method of Bennett G J and Xie Y K (Pain 1988, 33: 87-107). The animals are anesthetized with intraperitoneal injection of pentobarbital sodium. The left common sciatic nerve is exposed at the level of the middle of the thigh, freed of adhering tissue, and four ligatures are loosely tided around it by using 4-0 silk thread. The incision is sutured, and the rats are allowed to recover in their cages with soft bedding. Sham operation is performed in the same manner except of sciatic nerve ligation. The animals are individually placed in a Plexiglas test chamber on an elevated grid to acclimate for 1 hour before the day of testing. […]\nIn the cases where continuous positive or negative responses are observed all the way out to the end of the stimulus spectrum, values of 0.25 and 15 g are assigned, respectively. […] The 50% PWT is measured at the appropriated time after compound administration."}, "[2]": {"test_system": "CFA-induced weight bearing deficit in rats", "test": "CFA-induced weight bearing deficit in rats", "assay_type": "in vivo, Sprague-Dawley rats", "settings": "10 mg/kg per os", "procedure": "CFA-Induced Weight Bearing Deficit in Rats\nMale Sprague-Dawley rats at 7 weeks old are purchased from Charles River Japan Inc., and housed in groups of two per cage under a 12-h light/dark cycle (lights on at 07:00) with access to food and water ad libitum. CFA-induced weight bearing (WB) deficit is assessed using Incapacitance tester (Linton Instrumentation). The animals are habituated to a plastic case that comes with Incapacitance tester before the day of CFA injection. On the day of CFA injection, the weight distribution of each hind paw is measured 3 times per rat using the tester, and the difference of weight distribution, weight on the right (injected) paw minus weight on left (non-injected) paw, is defined as WB deficit value in g. The duration of the each measurement is adjusted to 3 seconds. CFA is prepared at a concentration of 2-3 mg/mL of Mycobacterium tuberculosis H37 RA in liquid paraffin. After disinfections with 70% ethanol, the rats are injected intraplantarly with 100 microL of CFA (200-300 microgram) into the right hind paw. Two days after CFA injection, the weight distribution of each hind paw is measured and the WB deficit value is calculated in the same manner as mentioned above. […] The weight distribution of each hind paw is measured at the appropriated time after compound administration, and the WB deficit value is calculated as previously explained."}}}
{"smiles": "CC(=O)Nc1cc(C(=O)NC(C)c2ccc(OCC(F)(F)F)nc2)ccn1", "note": "(single isomer, unassigned; (-)) [Example 1, (−)-2-acetamido-N-(1-(6-(2,2,2-trifluoroethoxy)pyridin-3-yl)ethyl)isonicotinamide]", "values": [{"measurement": "IC50", "setting": "human Nav1.3 channels", "result": 2800, "unit": "nM"}, {"measurement": "IC50", "setting": "human Nav1.5 channels", "result": "> 30", "unit": "µM"}, {"measurement": "activity in CCI-induced static allodynia (50% PWT, von Frey hair test)", "setting": "[1]", "result": "potent activity"}, {"measurement": "activity in CFA-induced weight bearing deficit", "setting": "[2]", "result": "significant activity"}]}
